# Laboratory results taken from ChEMBL document CHEMBL1152129, “Quantitative structure-activity relationship and complex network approach to monoamine oxidase A and B inhibitors” (J Med Chem, 2008).
# Target: T1, Amine oxidase [flavin-containing] A (Homo sapiens, UniProt P21397)
# T1 sequence (P21397 whole entry): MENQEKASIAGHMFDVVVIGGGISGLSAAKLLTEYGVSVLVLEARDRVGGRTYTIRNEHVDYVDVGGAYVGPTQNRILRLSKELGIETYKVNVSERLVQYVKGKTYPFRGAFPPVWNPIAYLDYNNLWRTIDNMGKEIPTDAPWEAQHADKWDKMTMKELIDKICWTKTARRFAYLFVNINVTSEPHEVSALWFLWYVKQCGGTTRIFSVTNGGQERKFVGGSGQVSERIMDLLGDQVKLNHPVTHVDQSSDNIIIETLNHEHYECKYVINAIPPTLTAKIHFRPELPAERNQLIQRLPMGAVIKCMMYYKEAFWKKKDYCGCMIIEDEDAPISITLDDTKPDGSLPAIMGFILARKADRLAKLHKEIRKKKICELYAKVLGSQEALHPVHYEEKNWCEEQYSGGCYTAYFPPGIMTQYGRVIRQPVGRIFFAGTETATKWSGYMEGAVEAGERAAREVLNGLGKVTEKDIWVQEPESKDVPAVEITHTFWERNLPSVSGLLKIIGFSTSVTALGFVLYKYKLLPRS
# Assay: Inhibition of human recombinant MAOA by fluorimetric method
# Details: human; call rule not given here
row,SMILES,Activity
1,CO[C@@]12[C@H](COC(N)=O)C3=C(C(=O)C(C)=C(N)C3=O)N1C[C@H]1[C@@H]2N1c1ccc(O)cc1,Not Active
2,CC(c1cnc2nc(N)nc(N)c2n1)N(C)c1ccc(C(=O)N[C@@H](CCC(=O)O)C(=O)O)cc1 (stereo partly drawn) [ADENOPTERIN],Not Active
3,CC(=O)Nc1ccc(/C=N/NC(N)=S)cc1 [AMITHIOZONE],Not Active
4,CCOC(=O)[C@H](Cc1ccc(O)cc1)NC(=O)[C@H](Cc1ccc(N(CCCl)CCCl)cc1)NC(C)=O [ASDOPHAN],Not Active
5,CC(=O)OC1C=CC(=O)OC1C1OC1C (stereo not drawn) [ASPERLIN],Not Active
6,O=C(O)c1ccc(NC2OC[C@@H](O)[C@H](O)[C@H]2O)cc1 (stereo partly drawn) [BENAXIBINE],Not Active
7,C=CC(=O)NCNC(=O)CCBr [BROMACRYLIDE],Not Active
8,C[C@H]1CC2=CC(=O)CC[C@]2(C)[C@H]2CC[C@@]3(C)[C@@H](CC[C@]3(C)O)[C@H]12 [CALUSTERONE],Not Active
9,Cc1nnc(SCC2=C(C(=O)O)N3C(=O)[C@@H](NC(=O)Cn4cnnn4)[C@H]3SC2)s1 [CEFAZOLIN],Not Active
10,C=CC1=C(C(=O)O)N2C(=O)[C@@H](NC(=O)/C(=N\OCC(=O)O)c3csc(N)n3)[C@H]2SC1 [CEFIXIME],Not Active
11,COC1=C(C)C(=O)C2=C(C1=O)[C@@H](CO)N1[C@H]3[C@H]4[C@@H](C[C@H]([C@H]1C#N)N4C)[C@@H]1OCCN1[C@@H]23 [CYANOCYCLINE A],Not Active
12,C[C@@H]1C[C@@H]([C@H](O)CC2CC(=O)NC(=O)C2)C(=O)[C@@H](C)C1 [CYCLOHEXIMIDE],Not Active
13,COc1cccc2c1C(=O)c1c(O)c3c(c(O)c1C2=O)C[C@@](O)(C(=O)CO)C[C@@H]3O[C@H]1C[C@H](N)[C@H](O)[C@H](C)O1 [DOXORUBICIN],Not Active
14,O=NN(CCCl)C(=O)NCCO [ELMUSTINE],Not Active
15,CCc1nc(N)nc(N)c1-c1ccc(Cl)c(Cl)c1 [ETOPRINE],Not Active
16,CCOC(=O)/C=C1\SC(N2CCCCC2)C(=O)N1C (stereo not drawn) [ETOZOLIN],Not Active
17,O=C(NP(=O)(N1CC1)N1CC1)c1ccc(F)cc1 [FLUORBENZOTEF],Not Active

row,SMILES,Activity
1,Cc1ccc(S(=O)(=O)NC(=O)N[C@H]2[C@H]3CC[C@@](C)([C@H]2O)C3(C)C)cc1 [GLIBORNURIDE],Not Active
2,COc1ccc(Cl)cc1C(=O)NCCc1ccc(S(=O)(=O)NC(=O)NC2CCCCC2)cc1 [GLYBURIDE],Not Active
3,NC(=O)NO [HYDROXYUREA],Not Active
4,CNCCc1ccc(OC(=O)C(C)C)c(OC(=O)C(C)C)c1 [IBOPAMINE],Not Active
5,CC(C)Cc1ccc(C(C)C(=O)O)cc1 (stereo not drawn) [IBUPROFEN],Not Active
6,CC(CCc1ccccc1)NCC(O)c1ccc(O)c(C(N)=O)c1 (stereo not drawn) [LABETALOL],Not Active
7,OC[C@@H](O)[C@@H](O)[C@H](O)[C@H](O)CO [MANNITOL],Not Active
8,Cc1cc(Cl)ccc1OCC(=O)O [METAXON],Not Active
9,O[C@@H]([C@H](O)[C@H](O)CBr)[C@H](O)CBr [MITOBRONITOL],Not Active
10,CC(/C=N/NC(=N)N)=N\NC(=N)N [MITOGUAZONE],Not Active
11,COCCOC(=O)C1=C(C)NC(C)=C(C(=O)OC(C)C)C1c1cccc([N+](=O)[O-])c1 (stereo not drawn) [NIMODIPINE],Not Active
12,CCC1(c2ccccc2)C(=O)NC(=O)NC1=O [PHENOBARBITAL],Not Active
13,COc1cc(NC(C)CCCN)c2ncccc2c1 (stereo not drawn) [PRIMAQUINE],Not Active
14,CCC1(c2ccccc2)C(=O)NCNC1=O [PRIMIDONE],Not Active
15,CC1=C(/C=C/C(C)=C/C=C/C(C)=C/CO)C(C)(C)CCC1 [RETINOL],Not Active
16,CCCCCCCCCCCCCCCC(=O)N(CCCCN(C)C)CCCCN(C)C [SOLAPALMITINE],Not Active
